Experiments:
[1] = system: pollen tube of Fuji apple; test: Pollen tube elongation of self-pollen in medium with style-specific RNase and inhibitor; type: cell-based; details: 10 units S1 RNase in medium
Procedure: To investigate the effect of the style-specific S1 RNase purified in the example 1-4 on pollen tube elongation of self-pollen, experiment was conducted as follows. First of all, only the self-pollen made from a stamen of Fuji apple was isolated. The isolated pollen was cultured in the medium for pollen tube elongation, which was added with 0, 2, 4 and 6 units (mg^−1min^−1ml) of S1 RNase purified in the example 1-4, respectively, in a dark condition for 24 hours at 28° C. The medium for pollen tube elongation is composed of 20 mM Mes-KOH (pH 6.0), 0.07% Ca(NO3)2·4H2O, 0.02% MgSO4·7H2O, 0.01% KNO3, 0.01% H3BO3 and 2% sucrose, and elongates pollen tube artificially.
10 units (mg^−1min^−1ml^−1) of the style-specific S1 RNase was added to the medium for pollen tube elongation, and ZnSO4 and CuSO4 were added thereto at 1 mM, 2 mM and 5 mM respectively. And then, pollen tube was cultured according to the same method as the Example 2.

Fuji apple = test: Fruition rate of Fuji apple according to blooming period of treatment; type: in vivo; details: 1 mM with siloxane spreader 0.0335%
Procedure: To test the effect of a style-specific RNase inhibitor of the present invention in a practical cultivating environment, the style-specific RNase of the present invention was treated to Fuji apple that was cultivated in a greenhouse for research (located in Cheongsong-gun, Kyungsangpukdo, Republic of Korea). In the present invention, the experiment was performed under the environmental condition that can keep the Fuji apple, a representative plant having gametophytic self-incompatibility, a single species genetically. To determine the treatment period of a style-specific RNase inhibitor, the inhibitor was treated at the early blooming period (budding formation period˜prior to full blooming), the middle blooming period (full blooming) and the late blooming period (1 day after full blooming˜falling period of petal) respectively. A composition, which was manufactured by mixing the spreader of siloxane class (brand name: silhouette, Dongbu precision chemical company, Korea) with the inhibitor to the concentration of 0.0335%, was treated under the same condition of the Example 5-1, and the results were shown in Table 5.

Row | Compound | elongation of pollen tube ([1]; 1 mM inhibitor) | elongation of pollen tube ([1]; 2 mM inhibitor) | Fruition rate (Fuji apple; 1 day after full blooming) | Fruition rate (Fuji apple; 1 day before blooming) | Fruition rate (Fuji apple; 2 days after full blooming) | Fruition rate (Fuji apple; 2 days before blooming) [%] | Fruition rate (Fuji apple; 3 days before blooming) [%] | Fruition rate (Fuji apple; 4 days before blooming) [%] | Fruition rate (Fuji apple; 5 days before blooming) [%] | Fruition rate (Fuji apple; full blooming)
1 | O=S(=O)([O-])[O-].[Zn+2] [ZnSO4] | elongated again | elongated again | 0 | 0 | 0 | >32 | >71 | >93 | >92 | 0
2 | O=S(=O)([O-])[O-].[Cu+2] [CuSO4] | elongated again |  | 0 | 0 | 0 | >24 | >70 | >86 | >91 | 0

Reference: US6723680B2, “Composition for regulation of gametophytic self-incompatibility, control method of gametophytic self-incompatibility of a plant and the plant self-pollinated by using said control method” (Istech Co., Ltd., priority 2000, dated 2004)
